# Assays:
# H+/K+-ATPase = biological target: T1, H+/K+-ATPase (Sus scrofa, UniProt P19156); assay: Proton pump inhibitory action: activity of inhibiting H+/K+-ATPase (at pH 1); format: biochemical; settings: pig gastric mucosa enzyme sample; test compounds pretreated in hydrochloric acid solution pH 1 (50% DMSO) for 15 minutes; read-out: Proton pump inhibitory action [IC50 (μmol/L)]
# T1 construct: The mucous membrane layer was homogenized in Tris-HCl buffer; from tissue; host or cells: pig stomach body, mucous membrane layer, membrane fraction from a sucrose interface
# T1 sequence (P19156 2-1034 limits assumed): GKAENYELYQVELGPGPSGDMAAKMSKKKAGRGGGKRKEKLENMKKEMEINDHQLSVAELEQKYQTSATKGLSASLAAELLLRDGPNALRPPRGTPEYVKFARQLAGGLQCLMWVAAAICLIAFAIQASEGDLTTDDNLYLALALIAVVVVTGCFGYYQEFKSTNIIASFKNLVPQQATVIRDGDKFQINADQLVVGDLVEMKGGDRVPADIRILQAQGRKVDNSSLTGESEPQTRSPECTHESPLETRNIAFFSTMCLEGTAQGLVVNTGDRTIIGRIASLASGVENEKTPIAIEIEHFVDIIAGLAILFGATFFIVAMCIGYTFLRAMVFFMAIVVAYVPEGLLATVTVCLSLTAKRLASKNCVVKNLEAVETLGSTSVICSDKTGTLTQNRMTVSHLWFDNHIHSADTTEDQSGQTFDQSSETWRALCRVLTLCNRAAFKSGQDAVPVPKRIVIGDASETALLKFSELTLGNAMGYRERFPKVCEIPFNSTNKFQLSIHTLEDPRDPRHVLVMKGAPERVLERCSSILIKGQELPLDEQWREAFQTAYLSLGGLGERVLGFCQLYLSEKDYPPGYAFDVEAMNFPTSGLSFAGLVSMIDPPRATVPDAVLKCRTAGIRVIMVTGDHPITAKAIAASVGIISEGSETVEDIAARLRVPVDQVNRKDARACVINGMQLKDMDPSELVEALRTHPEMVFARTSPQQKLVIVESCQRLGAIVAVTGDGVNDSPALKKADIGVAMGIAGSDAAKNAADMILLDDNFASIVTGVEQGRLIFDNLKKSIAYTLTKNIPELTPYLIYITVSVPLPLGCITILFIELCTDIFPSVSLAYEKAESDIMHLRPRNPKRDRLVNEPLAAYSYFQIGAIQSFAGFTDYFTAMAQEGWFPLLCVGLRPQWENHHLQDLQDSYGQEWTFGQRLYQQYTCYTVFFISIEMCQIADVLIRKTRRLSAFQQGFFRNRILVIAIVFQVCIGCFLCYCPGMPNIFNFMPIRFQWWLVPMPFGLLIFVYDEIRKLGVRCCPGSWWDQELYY
# T1 sequence (P18434 whole entry partner): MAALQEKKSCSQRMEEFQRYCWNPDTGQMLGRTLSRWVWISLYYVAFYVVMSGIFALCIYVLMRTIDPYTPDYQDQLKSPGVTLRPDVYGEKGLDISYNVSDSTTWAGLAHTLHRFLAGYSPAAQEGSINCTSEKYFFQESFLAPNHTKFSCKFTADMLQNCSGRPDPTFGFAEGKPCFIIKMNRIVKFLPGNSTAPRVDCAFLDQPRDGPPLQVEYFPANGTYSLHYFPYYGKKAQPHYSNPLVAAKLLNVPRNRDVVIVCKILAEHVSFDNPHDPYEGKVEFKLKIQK
# From the text: (Proton Pump Inhibitory Action)
# (1) Preparation of Enzyme Sample (H^+/K^+-ATPase)
# The stomach body removed from a pig, which had been stored in a frozen state, was separated into a muscle layer and a mucous membrane layer. The mucous membrane layer was homogenized in Tris-HCl buffer (20 mmol/L, pH 7.4) having a volume 5 times that of the layer and containing sucrose (0.25 mol/L) and EGTA (1 mmol/L) (hereinafter the mixture is referred to as Tris-HCl buffer) in a mixer. The homogenate was subjected to centrifugation (9,000×g, 30 minutes). The supernatant was softly placed on 8 mL Tris-HCl buffer (20 mmol/L, pH 7.4) containing 30% sucrose and 1 mmol/L EGTA. The mixture was subjected to ultracentrifugation at 100,000×g for 60 minutes. The interface fraction obtained through centrifugation was subjected to centrifugation (113,000×g, 60 minutes) twice. Pellet was suspended in Tris-HCl buffer, and the suspension was homogenized at low speed. The resultant homogenate served as an enzyme sample of interest and was stored at −80° C. The protein content of the sample was quantitated through use of a BCA protein assay reagent in accordance with a method described by Smith et al. (Anal. Biochem., 150, 76-85 (1985)). All these steps were performed under cooling with an ice bath.
# (2) Activity of inhibiting H^+/K^+-ATPase (at pH 1)
# Activity of inhibiting H^+/K^+-ATPase was measured in accordance with a method described in Biochem. Biophys. Res. Commun., 40, 880-886 (1970). Specifically, ATP was employed as a substrate, and inorganic phosphate, which is a resultant degradation product, was quantitated. In consideration of the solubility of test compounds, the test compounds were preliminarily treated with a hydrochloric acid solution (containing 50% DMSO, 1×10^−1 mol/L, pH 1). Each of the test compounds having different concentrations was added to the hydrochloric acid solution to thereby yield a 1,000—fold dilution, and thereafter, the diluted compound was allowed to stand for 15 minutes at room temperature. After these preliminary remedies, a 10 μL solution that had undergone the above preliminary remedies were added to 840 μL Tris-acetate buffer (40 mmol/L, pH 7.5, containing 2 mmol/L MgCl2, may be referred to as TE buffer) containing or not containing 20 mmol/L KCl. Subsequently, a 100 μL enzyme solution (5 μg protein) diluted with the TE buffer was added. Incubation was performed for 30 minutes at 37° C. Thereafter, a 50 μL ATP solution (40 mmol/L) which was dissolved in TE buffer not containing KCl was added to initiate enzyme reaction (total volume: 1 mL, ATP final concentration: 2 mmol/L). Incubation was performed for 30 minutes at 37° C. Subsequently, ice-cold 12% trichloroacetic acid (2 mL) was added, to thereby stop the enzyme reaction. A molybdenum reagent (1 mL, 3.75% ammonium molybdate/1.5 mol/L sulfuric acid) and butyl acetate (5 mL) were added, followed by mixing under vigorous shaking for 5 minutes. The absorption of the butyl acetate layer was measured at 310 nm. A standard curve was determined on the basis of absorption obtained through the similar procedure by use of KH2PO4 at different concentrations dissolved in 8% TCA solution, and inorganic phosphate content was calculated. Samples to be measured were prepared in duplicate. The measurements were averaged, and residual activity was obtained from the difference between the inorganic phosphate content as determined in a sample containing KCl and that as determined in a sample not containing KCl. Percentage inhibition activity was calculated with respect to the activity obtained from a control sample (DMSO), which was considered 100%. As the inhibitory potency of each test compound, IC50 values were computed and shown. All the test compounds were dissolved in dimethyl sulfoxide immediately before use.
# CYP2C19 = biological target: T2, CYP2C19 (Homo sapiens, UniProt P33261); assay: Human CYP2C19 activity inhibition test (S-(+)-mephenytoin to 4'-hydroxymephenytoin); format: in vitro ADME; settings: human, pH 7.4, probe S-(+)-mephenytoin (to 4'-hydroxymephenytoin), test compound 10 μM; human CYP2C19 yeast expression system microsome; 4'-hydroxymephenytoin generated vs control; read-out: CYP2C19 residual activity (%)
# T2 construct: purchased Sumitomo Chemical Co., Ltd; host or cells: yeast (microsomes)
# T2 sequence (P33261 whole entry): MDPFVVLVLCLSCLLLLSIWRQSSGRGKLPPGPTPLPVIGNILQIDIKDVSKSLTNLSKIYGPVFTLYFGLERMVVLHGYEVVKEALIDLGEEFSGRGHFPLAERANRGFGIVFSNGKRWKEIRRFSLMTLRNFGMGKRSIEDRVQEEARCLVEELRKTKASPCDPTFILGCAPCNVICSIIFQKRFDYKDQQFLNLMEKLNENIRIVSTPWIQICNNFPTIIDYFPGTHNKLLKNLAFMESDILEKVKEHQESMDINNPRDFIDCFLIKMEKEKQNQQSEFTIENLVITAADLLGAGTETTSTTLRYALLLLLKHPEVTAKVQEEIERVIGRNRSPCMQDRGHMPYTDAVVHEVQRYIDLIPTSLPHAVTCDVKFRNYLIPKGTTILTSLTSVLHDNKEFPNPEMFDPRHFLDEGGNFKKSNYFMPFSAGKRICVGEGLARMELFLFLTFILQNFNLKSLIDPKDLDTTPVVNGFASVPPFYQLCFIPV
# Experimental: (Human CYP2C19 Activity Inhibition Test)
# CYP2C19 specifically participates in the metabolism reaction from S-(+)-mephenytoin to 4′-hydroxymephenytoin. Therefore, by use of an expression system CYP2C19, the production amount (concentration) of 4′-hydroxymephenytoin, serving as an index for CYP2C19 activity, was determined, whereby the inhibitory action of respective test substances was investigated.
# (a) Metabolizing Activity Test
# A solution of S-(+)-mephenytoin in methanol (125 μmol/L, 50 μL) and a solution of a test substance in methanol (25 μmol/L, 0, 10, 100, or 200 μL) were placed in a 10-mL glass test tube. The solvent was removed under a nitrogen gas at 40° C. A 75 μL mixture of 0.5M phosphate buffer (pH 7.4)-0.5 mM EDTA (20:10), 140 μL purified water, and 10 μL human CYP2C19 yeast expression system microsome (purchased from Sumitomo Chemical Co., Ltd.) were added.
# Incubation was performed for 10 minutes at 37° C. Subsequently, aqueous 12% perchloric acid solution (50 μL) was added, to thereby stop the reaction.
# After the reaction was stopped, an internal standard substance (I.S.) methyl p-hydroxybenzoate (100 μg/ mL, 50 μL), and diethyl ether (2 mL) were added. The mixture was shaken for 10 minutes, followed by centrifugation at 3,000 rpm for 10 minutes. The organic layer was separated, and the solvent was removed under a nitrogen gas at 40° C. The residue was dissolved in a 200 μL mobile phase, and the mixture was subjected to analysis by high performance liquid chromatography (HPLC).
# In order to generate a calibration curve, the general procedure of the above process was repeated by use of 4′-hydroxymephenytoin solution instead of the S-(+)-mephenytoin solution. Quantitation was performed on the basis of the peak area ratio of 4′-hydroxymephenytoin to I.S. The amount of 4′-hydroxymephenytoin generated in the control sample was compared with that generated in the present of a test compound, and the results of comparison were used as an activity index.
# HPLC was performed under the conditions described below (HPLC conditions A or HPLC conditions B).
Structure (SMILES),IC50 (H+/K+-ATPase) [µmol/L],"activity at 10 min, 10 µM (CYP2C19) [%]"
"COc1ccc2nc([S@@+]([O-])Cc3ncc(C)c(OC)c3C)[nH]c2c1 [esomeprazole, reference compound]",2.06,35.4
"COc1c(OCCCC(F)(F)F)ccnc1C[S+]([O-])c1nc2ccccc2[nH]1 (single isomer, unassigned; (-)) [Example 6(1), (−)-2-[3-methoxy-4-(4,4,4-trifluorobutoxy)pyridin-2-yl-methanesulfinyl]-1H-benzimidazole]",2.5,66.4
"COc1c(OCCCC(F)(F)F)ccnc1C[S+]([O-])c1nc2ccccc2[nH]1 (stereo not drawn) [Example 1(2), 2-[3-methoxy-4-(4,4,4-trifluorobutoxy)pyridin-2-yl-methylsulfinyl]-1H-benzimidazole]",4.16,71.2
"[O-][S+](Cc1cc(OCCCC(F)(F)F)ccn1)c1nc2ccccc2[nH]1 (stereo not drawn) [Example 9(3), 2-[4-(4,4,4-trifluorobutoxy)pyridin-2-yl-methanesulfinyl]-1H-benzimidazole]",3.56,76.1
"Cc1c(OCC(F)(F)F)ccnc1C[S+]([O-])c1nc2ccccc2[nH]1 (stereo not drawn) [lansoprazole, reference compound]",1.61,8.7
"COc1c(OCCOCC(F)(F)F)ccnc1C[S+]([O-])c1nc2ccccc2[nH]1 (single isomer, unassigned; (+)) [Example 3(2), (+)-2-{3-methoxy-4-[2-(2,2,2-trifluoroethoxy)ethoxy]pyridin-2-yl-methylsulfinyl}-1H-benzimidazole]",4.05,98.3
"COCCCOc1ccnc(C[S+]([O-])c2nc3ccccc3[nH]2)c1C (stereo not drawn) [rabeprazole, reference compound]",1.61,39.8
"COc1ccnc(C[S+]([O-])c2nc3ccc(OC(F)F)cc3[nH]2)c1OC (stereo not drawn) [pantoprazole, reference compound]",5.46,33.1
"[O-][S+](Cc1cc(OCCOCC(F)(F)F)ccn1)c1nc2ccccc2[nH]1 (single isomer, unassigned; (-)) [Example 13(3), (−)-2-{4-[2-(2,2,2-trifluoroethoxy)ethoxy]pyridin-2-yl-methanesulfinyl}-1H-benzimidazole]",7.37,98.6
"COc1ccc2[nH]c([S+]([O-])Cc3ncc(C)c(OC)c3C)nc2c1 (stereo not drawn) [omeprazole, reference compound]",1.01,18.4
"COc1c(OCCOCC(F)(F)F)ccnc1C[S+]([O-])c1nc2ccccc2[nH]1 (stereo not drawn) [Example 2(2), 2-{3-methoxy-4-[2-(2,2,2-trifluoroethoxy)ethoxy]pyridin-2-yl-methylsulfinyl}-1H-benzimidazole]",3.37,66.5
"[O-][S+](Cc1cc(OCCCC(F)(F)F)ccn1)c1nc2ccccc2[nH]1 (single isomer, unassigned; (-)) [Example 10(2), (−)-2-[4-(4,4,4-trifluorobutoxy)pyridin-2-yl-methanesulfinyl]-1H-benzimidazole]",3.03,89.4
